Source: patent publication US20220089575A1, “FARNESOID X RECEPTOR AGONISTS AND USES THEREOF” (Metacrine, Inc., priority 2017, published 2022)

molecular target: T1, hFXR (Homo sapiens, UniProt Q96RI1); test: In Vitro FXR Assay (TK): TK-ECRE-luc reporter in transfected CV-1 cells; type: cell-based; conditions: 18 hrs, luminescence, maximum efficacy of <25% of the Fexarmine control classified as '+'
T1 construct: expressed in transfected cells; host or cells: CV-1 cells
T1 sequence (Q96RI1 1-486): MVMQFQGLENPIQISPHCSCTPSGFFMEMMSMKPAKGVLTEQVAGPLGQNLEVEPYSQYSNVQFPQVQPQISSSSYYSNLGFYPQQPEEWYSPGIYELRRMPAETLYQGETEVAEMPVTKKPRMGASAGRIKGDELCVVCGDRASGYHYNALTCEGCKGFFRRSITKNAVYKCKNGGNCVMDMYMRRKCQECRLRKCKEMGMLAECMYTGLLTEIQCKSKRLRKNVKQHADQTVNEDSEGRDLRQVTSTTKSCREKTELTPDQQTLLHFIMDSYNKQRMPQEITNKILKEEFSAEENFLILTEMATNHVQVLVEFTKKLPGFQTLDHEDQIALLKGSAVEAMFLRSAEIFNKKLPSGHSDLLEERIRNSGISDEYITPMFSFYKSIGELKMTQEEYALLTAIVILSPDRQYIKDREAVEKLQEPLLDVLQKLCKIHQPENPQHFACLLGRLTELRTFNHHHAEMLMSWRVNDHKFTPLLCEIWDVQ
T1 sequence (P19793 1-462 partner): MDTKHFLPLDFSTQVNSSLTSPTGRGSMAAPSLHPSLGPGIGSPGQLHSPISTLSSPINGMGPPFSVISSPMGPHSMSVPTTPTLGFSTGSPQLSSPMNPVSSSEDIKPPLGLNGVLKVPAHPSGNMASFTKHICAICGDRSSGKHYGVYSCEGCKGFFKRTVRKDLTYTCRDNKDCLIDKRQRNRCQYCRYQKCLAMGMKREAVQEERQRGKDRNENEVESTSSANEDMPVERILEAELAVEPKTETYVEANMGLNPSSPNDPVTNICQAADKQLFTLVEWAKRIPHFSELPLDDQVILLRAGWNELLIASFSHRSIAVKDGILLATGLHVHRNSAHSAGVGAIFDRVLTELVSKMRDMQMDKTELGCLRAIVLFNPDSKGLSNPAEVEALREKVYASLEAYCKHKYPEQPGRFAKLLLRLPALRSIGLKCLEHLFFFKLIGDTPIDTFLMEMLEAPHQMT
Method: CV-1 cells were seeded at a density of 2,000,000 cells in a T175 flask with DMEM+10% charcoal double-stripped FBS and incubated at 37° C. in 5% CO2 for 18 h (O/N).
After 18 h of incubation, the medium in the T175 flask was changed with fresh DMEM+10% charcoal super-stripped serum. In a polypropylene tube, 2500 μL OptiMEM (Life Technologies, Cat #31985-062) was combined with expression plasmids for hFXR, hRXR, TK-ECRE-luc and pCMX-YFP. The tube was then briefly vortexed and incubated at room temperature for 5 minutes. Transfection reagent (X-tremeGENE HP from Roche, Cat #06 366 236 001) was added to the OptiMEM/plasmid mixture vortexed and incubated at room temperature for 20 minutes. Following incubation, the transfection reagent/DNA mixture complex was added to cells in the T175 flask and the cells were incubated at 37° C. in 5% CO2 for 18 h (O/N).
Compounds were serially diluted in DMSO and added to transfected CV-1 cells. The cells were then incubated for 18 hrs. The next day cells were lysed and examined for luminescence.

EC50 [nM]	Structure (SMILES)
≤ 250	COc1ccc([C@H]2CC[C@H](CN(c3cc(-c4cnn(C(C)C)c4)ccn3)C(=O)[C@H]3CC[C@H](CO)CC3)CC2)nc1C [Compound 15.03, trans-4-(Hydroxymethyl)-N-(4-(1-isopropyl-1H-pyrazol-4-yl)pyridin-2-yl)-N-((trans-4-(5-methoxy-6-methylpyridin-2-yl)cyclohexyl)methyl) cyclohexanecarboxamide]
≤ 250	CNC(=O)O[C@H]1CC[C@H](C(=O)N(C[C@H]2CC[C@H](c3ccc(OC)c(C)c3)CC2)c2cccc(-c3cnc(N(C)C)nc3)c2)CC1 [Compound 5.38, trans-4-((3-(2-(Dimethylamino)pyrimidin-5-yl)phenyl)((trans-4-(4-methoxy-3-methylphenyl)cyclohexyl)methyl)carbamoyl)cyclohexyl methylcarbamate]
≤ 250	COc1ccc([C@H]2CC[C@H](CN(c3cccc(-c4cnc(C(C)C)s4)c3)C(=O)[C@H]3CC[C@H](OC(=O)NCCCO)CC3)CC2)nc1C [Compound 6.05]
≤ 250	COc1ccc([C@H]2CC[C@H](CN(c3cccc(-c4cnn(C5CC5)c4)c3)C(=O)[C@H]3CC[C@H](C(=O)O)CC3)CC2)cc1Cl [Compound 17.15, trans-4-(((trans-4-(3-Chloro-4-methoxyphenyl)cyclohexyl)methyl)(3-(1-cyclopropyl-1H-pyrazol-4-yl)phenyl)carbamoyl) cyclohexanecarboxylic acid]
≤ 250	COc1ccc([C@H]2CC[C@H](CN(c3cccc(-c4cnn(C5CC5)c4)c3)C(=O)[C@H]3CC[C@H](OC(=O)NCCN(C)C)CC3)CC2)cc1C [Compound 4.09, trans-4-((3-(1-Cyclopropyl-1H-pyrazol-4-yl)phenyl)((trans-4-(4-methoxy-3-methylphenyl)cyclohexyl)methyl)carbamoyl)cyclohexyl (2-(dimethylamino)ethyl)carbamate]
≤ 250	COc1ccc([C@H]2CC[C@H](CN(c3cccc(-c4cnn(C5CC5)c4)c3)C(=O)[C@H]3CC[C@H](OC(=O)N4CC(OC)C4)CC3)CC2)cc1C [Compound 4.06, trans-4-((3-(1-Cyclopropyl-1H-pyrazol-4-yl)phenyl)((trans-4-(4-methoxy-3-methylphenyl)cyclohexyl)methyl)carbamoyl)cyclohexyl 3-methoxyazetidine-1-carboxylate]
≤ 250	COc1ccc([C@H]2CC[C@H](CN(c3cccc(-c4coc(C5CC5)n4)c3)C(=O)[C@H]3CC[C@H](NC(=O)CO)CC3)CC2)cc1C [Compound 26.16, trans-N-(3-(2-Cyclopropyloxazol-4-yl)phenyl)-4-(2-hydroxyacetamido)-N-((trans-4-(4-methoxy-3-methylphenyl)cyclohexyl)methyl) cyclohexanecarboxamide]
≤ 250	COCCNC(=O)O[C@H]1CC[C@H](C(=O)N(C[C@H]2CC[C@H](c3ccc(OC)c(C)c3)CC2)c2cccc(-c3cnn(C4CC4)c3)c2)CC1 [Compound 6.10, trans-4-((3-(1-Cyclopropyl-1H-pyrazol-4-yl)phenyl)((trans-4-(4-methoxy-3-methylphenyl)cyclohexyl)methyl)carbamoyl)cyclohexyl (2-methoxyethyl) carbamate]
≤ 250	COc1ccc([C@H]2CC[C@H](CN(c3cccc(-c4cnn(C5CC5)c4)c3)C(=O)[C@H]3CC[C@H](OC(=O)N4CC(CS(C)(=O)=O)C4)CC3)CC2)cc1C [Compound 9, trans-4-((3-(1-cyclopropyl-1H-pyrazol-4-yl)phenyl)((trans-4-(4-methoxy-3-methylphenyl)cyclohexyl)methyl)carbamoyl)cyclohexyl 3-((methylsulfonyl)methyl)azetidine-1-carboxylate]
≤ 250	CNC(=O)O[C@H]1CC[C@H](C(=O)N(C[C@H]2CC[C@H](c3ccc(OC)c(C)c3)CC2)c2cccc(-c3cnc(C4CC4)s3)c2)CC1 [Compound 1.01, trans-4-((3-(2-Cyclopropylthiazol-5-yl)phenyl)((trans-4-(4-methoxy-3-methylphenyl)cyclohexyl)methyl)carbamoyl)cyclohexyl methylcarbamate]
≤ 250	Cn1nc(F)c2cc([C@H]3CC[C@H](CN(c4cccc(-c5cnc(C6CC6)s5)c4)C(=O)[C@H]4CC[C@H](C(=O)O)CC4)CC3)ccc21 [Compound 17.04, trans-4-((3-(2-Cyclopropylthiazol-5-yl)phenyl)((trans-4-(3-fluoro-1-methyl-1H-indazol-5-yl)cyclohexyl)methyl)carbamoyl) cyclohexanecarboxylic acid]
≤ 250	COc1ccc([C@H]2CC[C@H](CN(c3cccc(-c4cnc(C(C)C)s4)c3)C(=O)[C@H]3CC[C@H](OC(=O)NCCO)CC3)CC2)nc1C [Compound 6.04, trans-4-((3-(2-Isopropylthiazol-5-yl)phenyl)((trans-4-(5-methoxy-6-methylpyridin-2-yl)cyclohexyl)methyl)carbamoyl)cyclohexyl (2-hydroxyethyl)carbamate]
≤ 250	CNC(=O)O[C@H]1CC[C@H](C(=O)N(C[C@H]2CC[C@H](c3ccc4c(c3)c(F)nn4C)CC2)c2cccc(-c3cnc(C4CC4)s3)c2)CC1 [Compound 1.03, trans-4-((3-(2-Cyclopropylthiazol-5-yl)phenyl)((trans-4-(3-fluoro-1-methyl-1H-indazol-5-yl)cyclohexyl)methyl)carbamoyl)cyclohexyl methylcarbamate]
≤ 250	CCOC1CN(C(=O)O[C@H]2CC[C@H](C(=O)N(C[C@H]3CC[C@H](c4ccc(OC)c(C)n4)CC3)c3cc(-c4coc(C5CC5)n4)ccn3)CC2)C1 [Compound 7.87, trans-4-((4-(2-Cyclopropyloxazol-4-yl)pyridine-2-yl)((trans-4-(5-methoxy-6-methylpyridin-2-yl)cyclohexyl)methyl)carbamoyl)cyclohexyl 3-ethoxyazetidine-1-carboxylate]
≤ 250	CNC(=O)O[C@H]1CC[C@H](C(=O)N(C[C@H]2CC[C@H](c3ccc(OC)c(C#N)c3)CC2)c2cc(-c3cnn(C4CC4)c3)ccn2)CC1 [Compound 5.17, trans-4-(((trans-4-(3-Cyano-4-methoxyphenyl)cyclohexyl)methyl)(4-(1-cyclopropyl-1H-pyrazol-4-yl)pyridin-2-yl)carbamoyl)cyclohexyl methylcarbamate]
≤ 250	COc1ccc([C@H]2CC[C@H](CN(c3cccc(-c4cnn(C5CC5)c4)c3)C(=O)[C@H]3CC[C@H](NC(=O)C4CCC4)CC3)CC2)cc1C [Compound 30.01, trans-4-(Cyclobutanecarboxamido)-N-(3-(1-cyclopropyl-1H-pyrazol-4-yl)phenyl)-N-((trans-4-(4-methoxy-3-methylphenyl)cyclohexyl)methyl) cyclohexanecarboxamide]
≤ 250	COc1ccc([C@H]2CC[C@H](CN(c3cc(-c4cnn(C(C)C)c4)ccn3)C(=O)[C@H]3CC[C@H](OC(=O)NC4CC4)CC3)CC2)cc1C#N [Compound 6.35, trans-4-(((trans-4-(3-Cyano-4-methoxyphenyl)cyclohexyl)methyl)(4-(1-isopropyl-1H-pyrazol-4-yl)pyridin-2-yl)carbamoyl)cyclohexyl cyclopropylcarbamate]
≤ 250	COc1ccc([C@H]2CC[C@H](CN(c3cccc(-c4cnc(C5CC5)s4)c3)C(=O)[C@H]3CC[C@H](NC(=O)C4COC4)CC3)CC2)cc1C [Compound 27.02, N-(trans-4-((3-(2-Cyclopropylthiazol-5-yl)phenyl)((trans-4-(4-methoxy-3-methylphenyl)cyclohexyl)methyl)carbamoyl)cyclohexyl)oxetane-3-carboxamide]
≤ 250	COc1ncc(-c2cccc(N(C[C@H]3CC[C@H](c4ccc(OC)c(C)c4)CC3)C(=O)[C@H]3CC[C@H](C(=O)O)CC3)c2)s1 [Compound 17.01, trans-4-(((trans-4-(4-Methoxy-3-methylphenyl)cyclohexyl)methyl)(3-(2-methoxythiazol-5-yl)phenyl)carbamoyl)cyclohexanecarboxylic acid]
